# Key:
# ALK = biological target: T1, ALK (Homo sapiens, UniProt Q9UM73); test: In vitro kinase inhibition, Ambit Biosciences panel; assay type: binding; conditions: lower numbers indicate stronger activities
# T1 construct: purchased Ambit Biosciences
# Experimental: (§1) Up to 518 different kinases have been identified in humans. They act on small molecules such as lipids, carbohydrates, amino acids, and nucleotides. To determine the scope of inhibitory effects of a representative compound of Formula (I) on known kinases, Compound 6 was tested against 104 commercially available kinases (Ambit Biosciences™) in vitro. 104 kinases included ABL1(E255K)-phosphorylated, ABL1(T315I)-phosphorylated, ABL1-phosphorylated, ACVR1B, ADCK3, AKT1, AKT2, ALK, AURKA, AURKB, AXL, BMPR2, BRAF, BRAF(V600E), BTK, CDK11, CDK2, CDK3, CDK7, CDK9, CHEK1, CSF1R, CSNK1D, CSNK1G2, DCAMKL1, DYRK1B, EGFR, EGFR(L858R), EPHA2, ERBB2, ERBB4, ERK1, FAK, FGFR2, FGFR3, FLT1, FLT3, FLT4, GSK3B, IGF1R, IKK-α, IKK-β, INSR, JAK2(JH1domain-catalytic), JAK3(JH1domain-catalytic), JNK1, JNK2, JNK3, KIT, KIT(D816V), KIT(V559D,T670I), LKB1, LRRK2, LRRK2(G2019S), MAP3K4, MAPKAPK2, MARK3, MEK1, MEK2, MET, MKNK1, MKNK2, MLK1, MTOR, p38-alpha, p38-beta, PAK1, PAK2, PAK4, PCTK1, PDGFRA, PDGFRB, PDPK1, PIK3C2B, PIK3CA, PIK3CG, PIM1, PIM2, PIM3, PKAC-alpha, PLK1, PLK3, PLK4, PRKCE, PYK2, RAFT, RET, RIOK2, ROCK2, RSK2, SNARK, SRC, SRPK3, SYK, TAK1, TGFBR1, TIE2, TRKA, TSSK1B, TYK2(JH1domain-catalytic), ULK2, VEGFR2, YANK3 and ZAP70.
# (§2) Inhibition activity of Compound 6 was reported as percent control where lower numbers indicate stronger activities. […] Conventionally, the percent control of less than 35 is deemed to be significant inhibition of kinase activity as the numeric value 35 is frequently used as a threshold.
# AURKA = biological target: T2, AURKA (Homo sapiens, UniProt O14965); test: as above; assay type: binding; conditions: lower numbers indicate stronger activities
# T2 construct: purchased Ambit Biosciences
# Experimental: as §1, §2
# AXL = biological target: T3, AXL (Homo sapiens, UniProt P30530); test: as above; assay type: binding; conditions: lower numbers indicate stronger activities
# T3 construct: purchased Ambit Biosciences
# Experimental: as §1, §2
# BMPR2 = biological target: T4, BMPR2 (Homo sapiens, UniProt Q13873); test: as above; assay type: binding; conditions: lower numbers indicate stronger activities
# T4 construct: purchased Ambit Biosciences
# Experimental: as §1, §2
# CSF1R = biological target: T5, CSF1R (Homo sapiens, UniProt P07333); test: as above; assay type: binding; conditions: lower numbers indicate stronger activities
# T5 construct: purchased Ambit Biosciences
# Experimental: as §1, §2
# FAK = biological target: T6, FAK (Homo sapiens, UniProt Q05397); test: as above; assay type: binding; conditions: lower numbers indicate stronger activities
# T6 construct: purchased Ambit Biosciences
# Experimental: as §1, §2
# FLT3 = biological target: T7, FLT3 (Homo sapiens, UniProt P36888); test: as above; assay type: binding; conditions: lower numbers indicate stronger activities
# T7 construct: purchased Ambit Biosciences
# Experimental: as §1, §2
# JAK2 = biological target: T8, JAK2 (Homo sapiens, UniProt O60674); test: as above; assay type: binding; conditions: lower numbers indicate stronger activities
# T8 construct: JAK2(JH1domain-catalytic), JAK3(JH1domain-catalytic); purchased Ambit Biosciences
# Experimental: as §1, §2
# JAK3 = biological target: T9, JAK3 (Homo sapiens, UniProt P52333); test: as above; assay type: binding; conditions: lower numbers indicate stronger activities
# T9 construct: JAK2(JH1domain-catalytic), JAK3(JH1domain-catalytic); purchased Ambit Biosciences
# Experimental: as §1, §2
# JNK1 = biological target: T10, JNK1 (Homo sapiens, UniProt P45983); test: as above; assay type: binding; conditions: lower numbers indicate stronger activities
# T10 construct: purchased Ambit Biosciences
# Experimental: as §1, §2
# JNK2 = biological target: T11, JNK2 (Homo sapiens, UniProt P45984); test: as above; assay type: binding; conditions: lower numbers indicate stronger activities
# T11 construct: purchased Ambit Biosciences
# Experimental: as §1, §2
# JNK3 = biological target: T12, JNK3 (Homo sapiens, UniProt P53779); test: as above; assay type: binding; conditions: lower numbers indicate stronger activities
# T12 construct: purchased Ambit Biosciences
# Experimental: as §1, §2
# KIT = biological target: T13, KIT (Homo sapiens, UniProt P10721); test: as above; assay type: binding; conditions: lower numbers indicate stronger activities
# T13 construct: purchased Ambit Biosciences
# T13 sequence (P10721 26-976): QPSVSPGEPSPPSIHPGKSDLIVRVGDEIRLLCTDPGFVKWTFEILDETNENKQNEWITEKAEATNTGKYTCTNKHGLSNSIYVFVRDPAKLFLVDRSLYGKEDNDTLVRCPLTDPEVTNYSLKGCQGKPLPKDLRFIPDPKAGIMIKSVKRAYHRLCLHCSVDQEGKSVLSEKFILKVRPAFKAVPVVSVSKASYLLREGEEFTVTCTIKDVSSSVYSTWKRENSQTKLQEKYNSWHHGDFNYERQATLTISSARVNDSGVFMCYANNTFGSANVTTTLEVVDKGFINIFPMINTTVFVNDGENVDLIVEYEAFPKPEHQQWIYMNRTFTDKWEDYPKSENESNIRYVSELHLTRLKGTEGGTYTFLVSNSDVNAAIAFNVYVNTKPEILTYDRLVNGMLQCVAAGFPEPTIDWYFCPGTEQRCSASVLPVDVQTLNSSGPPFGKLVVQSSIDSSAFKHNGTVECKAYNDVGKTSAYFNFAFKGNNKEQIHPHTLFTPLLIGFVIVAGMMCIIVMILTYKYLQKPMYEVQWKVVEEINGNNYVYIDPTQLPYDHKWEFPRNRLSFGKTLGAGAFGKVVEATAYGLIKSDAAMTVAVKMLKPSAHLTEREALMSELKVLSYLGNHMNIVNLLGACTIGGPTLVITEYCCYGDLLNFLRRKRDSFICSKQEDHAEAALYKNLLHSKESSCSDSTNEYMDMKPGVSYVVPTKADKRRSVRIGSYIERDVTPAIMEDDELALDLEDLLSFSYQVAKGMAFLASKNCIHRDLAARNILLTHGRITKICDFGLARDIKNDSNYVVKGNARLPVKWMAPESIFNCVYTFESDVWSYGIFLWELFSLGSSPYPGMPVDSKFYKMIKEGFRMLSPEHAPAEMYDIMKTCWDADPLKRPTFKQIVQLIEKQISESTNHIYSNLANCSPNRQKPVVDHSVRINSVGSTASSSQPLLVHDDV
# Experimental: as §1, §2
# KIT(D816V) = biological target: T14, KIT(D816V) (Homo sapiens, UniProt P10721, D816V); test: as above; assay type: binding; conditions: lower numbers indicate stronger activities
# T14 construct: purchased Ambit Biosciences
# T14 sequence (P10721 26-976 D816V): as the sequence (P10721 26-976) above, with D791V counted along it
# Experimental: as §1, §2
# LKB1 = biological target: T15, LKB1 (Homo sapiens, UniProt Q15831); test: as above; assay type: binding; conditions: lower numbers indicate stronger activities
# T15 construct: purchased Ambit Biosciences
# Experimental: as §1, §2
# LRRK2 = biological target: T16, LRRK2 (Homo sapiens, UniProt Q5S007); test: as above; assay type: binding; conditions: lower numbers indicate stronger activities
# T16 construct: purchased Ambit Biosciences
# T16 sequence (Q5S007 whole entry): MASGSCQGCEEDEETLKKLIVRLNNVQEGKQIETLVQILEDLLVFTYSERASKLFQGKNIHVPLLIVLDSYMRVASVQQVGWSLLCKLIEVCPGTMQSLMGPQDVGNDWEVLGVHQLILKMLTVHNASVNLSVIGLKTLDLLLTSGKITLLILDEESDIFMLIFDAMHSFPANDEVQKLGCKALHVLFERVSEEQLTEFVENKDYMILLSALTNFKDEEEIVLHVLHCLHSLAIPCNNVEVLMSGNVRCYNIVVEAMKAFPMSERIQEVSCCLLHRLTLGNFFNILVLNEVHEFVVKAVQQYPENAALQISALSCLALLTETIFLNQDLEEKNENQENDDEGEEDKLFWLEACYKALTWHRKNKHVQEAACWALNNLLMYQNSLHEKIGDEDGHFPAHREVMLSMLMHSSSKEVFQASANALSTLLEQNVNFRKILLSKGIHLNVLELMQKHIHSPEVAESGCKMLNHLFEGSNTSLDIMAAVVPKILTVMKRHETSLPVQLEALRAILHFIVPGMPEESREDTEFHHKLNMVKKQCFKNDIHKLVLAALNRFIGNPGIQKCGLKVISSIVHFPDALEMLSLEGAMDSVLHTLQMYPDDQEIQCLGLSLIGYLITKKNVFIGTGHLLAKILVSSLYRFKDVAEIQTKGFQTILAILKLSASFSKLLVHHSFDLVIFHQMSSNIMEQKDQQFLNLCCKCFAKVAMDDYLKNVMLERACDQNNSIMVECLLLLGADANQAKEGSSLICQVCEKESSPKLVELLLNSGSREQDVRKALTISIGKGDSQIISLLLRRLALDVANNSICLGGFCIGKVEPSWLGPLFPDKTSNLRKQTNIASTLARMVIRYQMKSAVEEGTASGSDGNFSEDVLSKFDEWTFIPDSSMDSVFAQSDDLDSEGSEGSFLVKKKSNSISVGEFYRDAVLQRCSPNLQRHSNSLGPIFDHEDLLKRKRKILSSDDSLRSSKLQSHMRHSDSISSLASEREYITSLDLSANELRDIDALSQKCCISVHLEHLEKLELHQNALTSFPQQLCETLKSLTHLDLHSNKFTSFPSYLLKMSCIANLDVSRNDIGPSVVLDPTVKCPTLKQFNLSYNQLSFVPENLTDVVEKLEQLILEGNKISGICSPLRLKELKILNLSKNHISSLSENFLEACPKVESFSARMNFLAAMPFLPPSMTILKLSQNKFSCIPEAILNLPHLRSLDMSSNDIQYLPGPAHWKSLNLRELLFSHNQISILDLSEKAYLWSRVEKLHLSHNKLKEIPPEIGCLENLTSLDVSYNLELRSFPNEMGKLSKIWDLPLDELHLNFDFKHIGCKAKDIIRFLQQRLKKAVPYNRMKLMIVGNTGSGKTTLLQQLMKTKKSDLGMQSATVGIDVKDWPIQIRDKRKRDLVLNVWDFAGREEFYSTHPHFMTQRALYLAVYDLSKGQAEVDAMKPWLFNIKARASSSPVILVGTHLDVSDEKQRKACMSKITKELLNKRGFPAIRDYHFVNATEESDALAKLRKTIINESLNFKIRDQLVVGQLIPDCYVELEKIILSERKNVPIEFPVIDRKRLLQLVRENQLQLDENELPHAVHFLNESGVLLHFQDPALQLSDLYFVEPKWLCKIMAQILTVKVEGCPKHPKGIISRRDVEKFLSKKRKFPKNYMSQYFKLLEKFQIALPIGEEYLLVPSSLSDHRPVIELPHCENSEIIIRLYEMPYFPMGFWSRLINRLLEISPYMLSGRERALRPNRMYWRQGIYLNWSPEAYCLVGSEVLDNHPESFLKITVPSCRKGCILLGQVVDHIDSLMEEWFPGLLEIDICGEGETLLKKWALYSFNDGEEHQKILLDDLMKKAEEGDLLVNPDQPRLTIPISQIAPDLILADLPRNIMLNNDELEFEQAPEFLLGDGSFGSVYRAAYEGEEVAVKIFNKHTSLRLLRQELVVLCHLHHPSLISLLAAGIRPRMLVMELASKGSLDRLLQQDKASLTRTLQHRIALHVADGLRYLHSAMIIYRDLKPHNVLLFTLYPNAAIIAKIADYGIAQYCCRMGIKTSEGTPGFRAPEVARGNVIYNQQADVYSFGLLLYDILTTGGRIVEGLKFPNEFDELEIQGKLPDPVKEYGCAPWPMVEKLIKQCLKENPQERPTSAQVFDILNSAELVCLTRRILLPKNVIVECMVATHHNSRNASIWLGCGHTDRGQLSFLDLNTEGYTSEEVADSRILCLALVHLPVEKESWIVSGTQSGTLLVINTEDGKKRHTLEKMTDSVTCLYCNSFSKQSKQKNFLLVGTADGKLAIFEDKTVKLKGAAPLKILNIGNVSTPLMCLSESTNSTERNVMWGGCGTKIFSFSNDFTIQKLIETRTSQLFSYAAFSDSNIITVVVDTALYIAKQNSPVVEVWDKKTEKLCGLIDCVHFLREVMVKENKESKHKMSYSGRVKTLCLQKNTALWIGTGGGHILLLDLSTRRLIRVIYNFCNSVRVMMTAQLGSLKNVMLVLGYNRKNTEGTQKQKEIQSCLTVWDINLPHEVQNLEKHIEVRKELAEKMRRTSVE
# Experimental: as §1, §2
# LRRK2(G2019S) = biological target: T17, LRRK2(G2019S) (Homo sapiens, UniProt Q5S007, G2019S); test: as above; assay type: binding; conditions: lower numbers indicate stronger activities
# T17 construct: purchased Ambit Biosciences
# T17 sequence (Q5S007 whole entry G2019S): as the sequence (Q5S007 whole entry) above, with G2019S counted along it
# Experimental: as §1, §2
# MLK1 = biological target: T18, MLK1 (Homo sapiens, UniProt P80192); test: as above; assay type: binding; conditions: lower numbers indicate stronger activities
# T18 construct: purchased Ambit Biosciences
# Experimental: as §1, §2
# PAK4 = biological target: T19, PAK4 (Homo sapiens, UniProt O96013); test: as above; assay type: binding; conditions: lower numbers indicate stronger activities
# T19 construct: purchased Ambit Biosciences
# Experimental: as §1, §2
# PDGFRB = biological target: T20, PDGFRB (Homo sapiens, UniProt P09619); test: as above; assay type: binding; conditions: lower numbers indicate stronger activities
# T20 construct: purchased Ambit Biosciences
# Experimental: as §1, §2
# PLK4 = biological target: T21, PLK4 (Homo sapiens, UniProt O00444); test: as above; assay type: binding; conditions: lower numbers indicate stronger activities
# T21 construct: purchased Ambit Biosciences
# Experimental: as §1, §2
# RET = biological target: T22, RET (Homo sapiens, UniProt P07949); test: as above; assay type: binding; conditions: lower numbers indicate stronger activities
# T22 construct: purchased Ambit Biosciences
# Experimental: as §1, §2
# RSK2 = biological target: T23, RSK2 (Homo sapiens, UniProt P51812); test: as above; assay type: binding; conditions: lower numbers indicate stronger activities
# T23 construct: RSK2 (Kin.Dom.1-N-terminal); purchased Ambit Biosciences
# Experimental: as §1, §2
# SNARK = biological target: T24, SNARK (Homo sapiens, UniProt Q9H093); test: as above; assay type: binding; conditions: lower numbers indicate stronger activities
# T24 construct: purchased Ambit Biosciences
# Experimental: as §1, §2
# SRPK3 = biological target: T25, SRPK3 (Homo sapiens, UniProt Q9UPE1); test: as above; assay type: binding; conditions: lower numbers indicate stronger activities
# T25 construct: purchased Ambit Biosciences
# Experimental: as §1, §2
# TAK1 = biological target: T26, TAK1 (Homo sapiens, UniProt O43318); test: as above; assay type: binding; conditions: lower numbers indicate stronger activities
# T26 construct: purchased Ambit Biosciences
# Experimental: as §1, §2
# TYK2 = biological target: T27, TYK2 (Homo sapiens, UniProt P29597); test: as above; assay type: binding; conditions: lower numbers indicate stronger activities
# T27 construct: TYK2(JH1domain-catalytic); purchased Ambit Biosciences
# Experimental: as §1, §2
# MOLT-4 = test: cells; assay type: cell-based; conditions: MOLT-4 (Leukemia)
# T1 sequence (Q9UM73 19-1620): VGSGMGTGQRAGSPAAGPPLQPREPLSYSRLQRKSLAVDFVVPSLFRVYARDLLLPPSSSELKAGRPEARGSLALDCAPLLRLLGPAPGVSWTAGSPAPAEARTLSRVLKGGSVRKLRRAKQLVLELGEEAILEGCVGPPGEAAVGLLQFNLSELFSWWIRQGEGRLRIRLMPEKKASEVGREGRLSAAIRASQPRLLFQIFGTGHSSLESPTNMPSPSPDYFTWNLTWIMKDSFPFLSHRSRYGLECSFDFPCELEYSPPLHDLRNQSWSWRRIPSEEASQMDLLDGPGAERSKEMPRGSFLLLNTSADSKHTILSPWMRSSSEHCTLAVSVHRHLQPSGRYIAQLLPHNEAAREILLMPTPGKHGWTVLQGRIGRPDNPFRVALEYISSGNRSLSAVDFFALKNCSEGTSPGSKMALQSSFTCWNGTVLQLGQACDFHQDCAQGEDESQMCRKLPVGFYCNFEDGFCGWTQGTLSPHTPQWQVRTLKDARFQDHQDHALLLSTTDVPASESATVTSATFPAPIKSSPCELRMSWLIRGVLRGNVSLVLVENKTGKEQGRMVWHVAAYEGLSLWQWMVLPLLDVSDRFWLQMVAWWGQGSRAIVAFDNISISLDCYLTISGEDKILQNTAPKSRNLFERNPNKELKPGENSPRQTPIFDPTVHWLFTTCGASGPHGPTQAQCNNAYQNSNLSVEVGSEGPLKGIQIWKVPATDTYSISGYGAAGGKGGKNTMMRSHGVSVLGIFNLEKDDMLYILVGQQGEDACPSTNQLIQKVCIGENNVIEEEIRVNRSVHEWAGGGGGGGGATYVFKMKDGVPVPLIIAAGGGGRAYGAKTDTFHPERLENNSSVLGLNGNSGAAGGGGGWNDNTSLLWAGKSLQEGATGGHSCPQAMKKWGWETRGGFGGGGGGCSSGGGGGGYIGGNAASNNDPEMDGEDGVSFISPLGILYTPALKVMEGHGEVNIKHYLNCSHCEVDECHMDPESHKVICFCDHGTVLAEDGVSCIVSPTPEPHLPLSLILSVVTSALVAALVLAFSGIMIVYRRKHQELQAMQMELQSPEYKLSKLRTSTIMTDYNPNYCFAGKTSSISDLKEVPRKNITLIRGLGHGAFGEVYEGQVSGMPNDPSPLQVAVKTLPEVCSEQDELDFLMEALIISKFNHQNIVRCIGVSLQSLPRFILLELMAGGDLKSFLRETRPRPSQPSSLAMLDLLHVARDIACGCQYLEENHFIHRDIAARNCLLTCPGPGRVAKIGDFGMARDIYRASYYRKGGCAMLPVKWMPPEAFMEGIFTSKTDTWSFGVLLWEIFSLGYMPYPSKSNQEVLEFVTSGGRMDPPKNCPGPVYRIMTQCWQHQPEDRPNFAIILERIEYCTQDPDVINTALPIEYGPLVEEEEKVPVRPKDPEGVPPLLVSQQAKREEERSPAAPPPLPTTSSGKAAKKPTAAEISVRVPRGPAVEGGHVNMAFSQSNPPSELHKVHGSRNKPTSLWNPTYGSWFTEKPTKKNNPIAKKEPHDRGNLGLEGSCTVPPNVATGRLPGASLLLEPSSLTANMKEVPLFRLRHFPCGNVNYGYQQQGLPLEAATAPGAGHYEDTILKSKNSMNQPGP
structure (smiles),measurement,setting,value
"O=c1[nH]ccc2nc(N3CCC(O)CC3)nc(Nc3cccc(C(F)(F)F)c3)c12 [Compound 6, 2-(4-hydroxypiperidin-1-yl)-4-(3-(trifluoromethyl)phenylamino)pyrido[4,3-d]pyrimidine-5(6H)-one]",Percent of control (lower = stronger binding),ALK,29%
same,% inhibition (reported as percent control),AURKA,31%
same,% inhibition (reported as percent control),AXL,11%
same,% inhibition (reported as percent control),BMPR2,0%
same,% inhibition (reported as percent control),CSF1R,5.2%
same,% inhibition (reported as percent control),FAK,34%
same,% inhibition (reported as percent control),FLT3,28%
same,% inhibition (reported as percent control),JAK2,3%
same,% inhibition (reported as percent control),JAK3,4.4%
same,% inhibition (reported as percent control),JNK1,4.8%
same,% inhibition (reported as percent control),JNK2,25%
same,% inhibition (reported as percent control),JNK3,7%
same,% inhibition (reported as percent control),KIT,11%
same,% inhibition (reported as percent control),KIT(D816V),9.3%
same,% inhibition (reported as percent control),LKB1,18%
same,% inhibition (reported as percent control),LRRK2,2.2%
same,% inhibition (reported as percent control),LRRK2(G2019S),2.2%
same,% inhibition (reported as percent control),MLK1,2.8%
same,% inhibition (reported as percent control),PAK4,21%
same,% inhibition (reported as percent control),PDGFRB,19%
same,% inhibition (reported as percent control),PLK4,13%
same,% inhibition (reported as percent control),RET,16%
same,% inhibition (reported as percent control),RSK2,18%
same,% inhibition (reported as percent control),SNARK,3.6%
same,% inhibition (reported as percent control),SRPK3,2.6%
same,% inhibition (reported as percent control),TAK1,1%
same,% inhibition (reported as percent control),TYK2,16%
same,GI50,MOLT-4; Homo sapiens,2.24 µM
same,IC50,MOLT-4; Homo sapiens,3.63 µM
same,LC50,MOLT-4; Homo sapiens,100 µM
same,TGI,MOLT-4,7.76 µM

# — patent publication US8404677B2, “Kinase inhibitors” (Genosco, priority 2009, dated 2013)
